Values quoted from earlier work as cited in patent publication US20230405018A1, “FLUMAZENIL FORMULATIONS FOR SUBCUTANEOUS INJECTION AND METHODS OF TREATMENT USING GABA RECEPTOR MODULATORS” (Bexson Biomedical, Inc., priority 2020, published 2023).
Read-outs that look alike come from different tables or passages of the source.

Key:
[1] = test system: benzodiazepine withdrawal symptoms
[2] = acidic USP flumazenil preparations (pH ~4)
[3] = reported

Compound | Effect on withdrawal, craving and cessation ([1]; bolus administrations in conjunction with benzodiazepine tapering) | Effect on withdrawal symptoms ([1]; continuous 2 mg/24 h over 96 h by IV with oxazepam tapering) | Effect on withdrawal symptoms ([1]; ~1-2 mg bolus over several hours, high dose benzodiazepine patients abstinent at least three weeks) | Solubility / concentration of flumazenil in USP preparations [2] [mg/mL] | Systemic availability after first pass hepatic metabolism (in vivo) | Oral bioavailability (in vivo, po) | Half-life (rapid metabolism in the liver) [min] | Solubility of SBE-β-CD [3] [mg/mL]
CCOC(=O)c1ncn2c1CN(C)C(=O)c1cc(F)ccc1-2 [flumazenil, ethyl 8-fluoro-5,6-dihydro-5-methyl-6-oxo-4H-imidazo[1,5-a][1,4] benzodiazepine-3-carboxylate] | reduction of benzodiazepine withdrawal symptoms, reduced craving, and increased completion of cessation of benzodiazepines without relapse | drastically curtail withdrawal symptoms | reduce withdrawal symptoms | ~0.1 | less than 25% | extremely limited and poor | 4 to 11 | –
sulfobutyl-ether-beta-cyclodextrin [SBE-β-CD] | – | – | – | – | – | – | – | 600
